According to ChEMBL document CHEMBL3351580, “Pyrano-isochromanones as IL-6 inhibitors: synthesis, in vitro and in vivo antiarthritic activity” (J Med Chem, 2014):
pIC50: −log10 of the molar value. The source made the active and inactive calls. The rule behind the calls is not given here.

Columns and labels:
THP-1 [1] = assay: Inhibition of LPS-induced IL6 production in human THP1 cells after 24 hrs; type: functional, cell-based; settings: THP-1, 24 h
[2] = target: Inhibitor of NF-kappa-B kinase (IKK) (Homo sapiens) (UniProt O14920+O15111+Q9Y6K9); assay: Inhibition of IKKbeta expression in human THP1 cells at 20 to 100 uM by Western blotting method; type: functional, cell-based; settings: THP-1
[3] = Solubility in SIF solution; type: physicochemical
Mus musculus [4] = assay: Antiarthritic activity in DBA/1J mouse collagen-induced arthritis model assessed as reduction in anticollagen antibody IgG2a level at 3 to 30 mg/kg, po administered once daily for 49 days starting from onset of disease and measured after 49 days of disease onset by ELISA method; type: functional, organism-based
Mus musculus [5] = assay: Antiarthritic activity in BALB/c mouse assessed as reduction in SRBC-induced blood IL4 level administered orally once daily for 14 days measured 4 hrs post last dose by ELISA method; type: functional, organism-based
THP-1 [6] = assay: Cytotoxicity against human THP1 cells after 24 hrs by MTT assay; type: cell-based; settings: THP-1, 24 h
CYP2C9 = CYP2C9 (Homo sapiens, UniProt P11712); assay: Inhibition of CYP2C9 (unknown origin) at 10 uM; type: ADME
Mus musculus [7] = assay: Antiarthritic activity in BALB/c mouse assessed as reduction in SRBC-induced blood IL2 level administered orally once daily for 14 days measured 4 hrs post last dose by ELISA method; type: functional, organism-based
B-cell = assay: Inhibition of LPS-induced cell proliferation of B cells (unknown origin) at 10 uM after 72 hrs by MTT assay; type: functional
[8] = Solubility in water; type: physicochemical
THP-1 [9] = assay: Inhibition of LPS-induced TNFalpha production in human THP1 cells after 24 hrs; type: functional, cell-based; settings: THP-1, 24 h
THP-1 [10] = assay: Inhibition of LPS-induced nitric oxide production in human THP1 cells at 10 uM after 24 hrs by Griess assay; type: functional; settings: THP-1, 24 h
[11] = Efflux ratio in human Caco2 cells; type: ADME, cell-based; settings: Caco-2
Mus musculus [12] = assay: Antiarthritic activity in DBA/1J mouse collagen-induced arthritis model assessed as reduction in TNFalpha level at 3 to 30 mg/kg, po administered once daily for 49 days starting from onset of disease and measured after 3 to 49 days of disease onset by ELISA method; type: functional, organism-based
Mus musculus [13] = assay: Antiarthritic activity in DBA/1J mouse collagen-induced arthritis model assessed as reduction in paw swelling at 30 mg/kg, po administered once daily for 49 days starting from onset of disease; type: functional; settings: 1176 h
Mus musculus [14] = assay: Antiarthritic activity in DBA/1J mouse collagen-induced arthritis model assessed as reduction in anticollagen antibody IgG2a level at 3 to 30 mg/kg, po administered once daily for 49 days starting from onset of disease and measured after 14 days of disease onset by ELISA method; type: functional, organism-based
CYP3A4 = CYP3A4 (Homo sapiens, UniProt P08684); assay: Inhibition of CYP3A4 (unknown origin) at 10 uM; type: ADME
THP-1 [15] = assay: Cytotoxicity against human THP1 cells after 48 hrs by MTT assay; type: cell-based; settings: THP-1, 48 h
Mus musculus [16] = assay: Antiarthritic activity in DBA/1J mouse collagen-induced arthritis model assessed as reduction in IL6 level at 3 to 30 mg/kg, po administered once daily for 49 days starting from onset of disease and measured after 3 to 49 days of disease onset by ELISA method; type: functional, organism-based
Mus musculus [17] = assay: Antiarthritic activity in BALB/c mouse assessed as reduction in SRBC-induced blood IFNgamma level administered orally once daily for 14 days measured 4 hrs post last dose by ELISA method; type: functional, organism-based
Mus musculus [18] = assay: Antiarthritic activity in DBA/1J mouse collagen-induced arthritis model assessed as reduction in anticollagen antibody IgG1 level at 3 to 30 mg/kg, po administered once daily for 49 days starting from onset of disease and measured after 14 days of disease onset by ELISA method; type: functional, organism-based
Mus musculus [19] = assay: Antiinflammatory activity in BALB/c mouse assessed as serum nitric oxide level at 100 mg/kg, po qd for 5 days followed by LPS challenge 1 hr after last compound dose on fifth day and measured 4 hrs post LPS challenge by Griess assay (reference value: 6.95 +/- 1.81 uM); type: functional
Cytochrome P450 1A2 = target: T1, Cytochrome P450 1A2 (Homo sapiens, UniProt P05177); assay: Activation of CYP1A2 (unknown origin) assessed as increase in enzyme activity at 10 uM; type: ADME
T1 sequence (P05177 whole entry): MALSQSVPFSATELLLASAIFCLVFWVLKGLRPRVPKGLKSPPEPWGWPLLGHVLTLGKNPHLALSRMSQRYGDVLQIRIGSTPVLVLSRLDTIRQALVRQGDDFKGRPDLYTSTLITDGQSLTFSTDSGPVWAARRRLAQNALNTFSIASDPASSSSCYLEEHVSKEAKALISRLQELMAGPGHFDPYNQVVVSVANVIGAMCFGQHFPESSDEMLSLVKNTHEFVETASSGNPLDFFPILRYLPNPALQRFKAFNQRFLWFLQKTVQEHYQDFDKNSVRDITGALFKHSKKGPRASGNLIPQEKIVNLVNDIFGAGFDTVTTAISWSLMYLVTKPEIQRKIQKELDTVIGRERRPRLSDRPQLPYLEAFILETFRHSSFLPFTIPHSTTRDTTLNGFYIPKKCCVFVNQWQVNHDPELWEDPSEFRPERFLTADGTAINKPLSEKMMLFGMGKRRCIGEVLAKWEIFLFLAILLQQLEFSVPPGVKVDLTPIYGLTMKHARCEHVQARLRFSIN

CYP2C19 = CYP2C19 (Homo sapiens, UniProt P33261); assay: Inhibition of CYP2C19 (unknown origin) at 10 uM; type: ADME
[20] = Inhibition of concanavalin A-induced cell proliferation of T cells (unknown origin) at 10 uM after 72 hrs by MTT assay; type: functional
[21] = Solubility in PBS buffer; type: physicochemical
[22] = Apparent permeability from basolateral to apical side in human Caco2 cells; type: ADME, cell-based; settings: Caco-2
Mus musculus [23] = assay: Antiinflammatory activity in BALB/c mouse assessed as serum TNFalpha level at 100 mg/kg, po qd for 5 days followed by LPS challenge 1 hr after last compound dose on fifth day and measured 4 hrs post LPS challenge by ELISA method (reference value: 717 +/- 218 pg/mL); type: functional
Mus musculus [24] = assay: Immunosuppressive activity in BALB/c mouse assessed as reduction in SRBC-induced humoral immunity by measuring IgM level at 3 to 30 mg/kg, po administered once daily for 14 days measured 4 hrs post last dose; type: functional, organism-based
Mus musculus [25] = assay: Immunosuppressive activity in BALB/c mouse assessed as reduction in SRBC-induced humoral immunity by measuring IgG level at 3 to 30 mg/kg, po administered once daily for 14 days measured 4 hrs post last dose; type: functional, organism-based
Mus musculus [26] = assay: Antiinflammatory activity in BALB/c mouse assessed as serum TNFalpha level at 10 mg/kg, po qd for 5 days followed by LPS challenge 1 hr after last compound dose on fifth day and measured 4 hrs post LPS challenge by ELISA method (reference value: 717 +/- 218 pg/mL); type: functional
Cytochrome P450 2D6 = Cytochrome P450 2D6 (Homo sapiens, UniProt P10635); assay: Activation of CYP2D6 (unknown origin) assessed as increase in enzyme activity at 10 uM; type: ADME
[27] = Apparent permeability from apical to basolateral side in human Caco2 cells; type: ADME, cell-based; settings: Caco-2

Chain of CYP2C9 (P11712 whole entry): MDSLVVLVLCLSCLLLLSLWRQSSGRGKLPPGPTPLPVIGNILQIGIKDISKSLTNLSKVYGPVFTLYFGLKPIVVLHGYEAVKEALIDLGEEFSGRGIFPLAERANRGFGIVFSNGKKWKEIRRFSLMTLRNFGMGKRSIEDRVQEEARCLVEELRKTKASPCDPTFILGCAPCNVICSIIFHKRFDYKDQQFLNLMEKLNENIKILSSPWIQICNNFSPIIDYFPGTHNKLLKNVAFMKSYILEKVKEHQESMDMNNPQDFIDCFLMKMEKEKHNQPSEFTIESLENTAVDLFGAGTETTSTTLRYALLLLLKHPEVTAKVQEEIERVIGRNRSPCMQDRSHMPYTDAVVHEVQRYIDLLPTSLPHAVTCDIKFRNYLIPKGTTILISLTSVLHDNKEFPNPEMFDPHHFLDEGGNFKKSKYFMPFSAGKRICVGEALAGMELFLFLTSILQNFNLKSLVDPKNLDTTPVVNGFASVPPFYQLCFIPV
Chain of CYP2C19 (P33261 whole entry): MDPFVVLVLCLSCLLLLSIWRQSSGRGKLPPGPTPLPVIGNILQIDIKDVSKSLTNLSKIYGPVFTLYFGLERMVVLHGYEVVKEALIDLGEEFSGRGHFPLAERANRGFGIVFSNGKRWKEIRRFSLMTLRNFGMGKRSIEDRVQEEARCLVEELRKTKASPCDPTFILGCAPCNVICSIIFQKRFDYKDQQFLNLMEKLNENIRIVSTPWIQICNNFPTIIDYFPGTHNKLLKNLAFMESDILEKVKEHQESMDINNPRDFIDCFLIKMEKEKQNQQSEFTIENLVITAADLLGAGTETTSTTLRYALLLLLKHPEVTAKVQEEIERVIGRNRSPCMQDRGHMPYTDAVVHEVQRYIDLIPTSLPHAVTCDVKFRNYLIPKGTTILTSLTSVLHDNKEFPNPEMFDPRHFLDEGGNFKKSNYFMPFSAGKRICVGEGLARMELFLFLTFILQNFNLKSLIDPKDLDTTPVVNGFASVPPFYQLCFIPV
Chain of CYP3A4 (P08684 whole entry): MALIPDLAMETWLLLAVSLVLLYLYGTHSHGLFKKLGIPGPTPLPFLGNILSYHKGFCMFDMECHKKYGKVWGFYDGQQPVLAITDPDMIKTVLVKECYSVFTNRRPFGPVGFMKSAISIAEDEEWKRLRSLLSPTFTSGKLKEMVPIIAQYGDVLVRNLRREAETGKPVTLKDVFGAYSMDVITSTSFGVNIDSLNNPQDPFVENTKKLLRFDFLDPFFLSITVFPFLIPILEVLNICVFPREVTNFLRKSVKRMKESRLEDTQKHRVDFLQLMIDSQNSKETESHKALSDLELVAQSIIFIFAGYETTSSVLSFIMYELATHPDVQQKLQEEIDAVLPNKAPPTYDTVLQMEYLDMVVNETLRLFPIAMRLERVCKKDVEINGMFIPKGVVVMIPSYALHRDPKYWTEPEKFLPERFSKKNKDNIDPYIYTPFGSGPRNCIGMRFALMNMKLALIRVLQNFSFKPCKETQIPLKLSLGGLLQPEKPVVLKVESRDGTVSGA
Chain of Cytochrome P450 2D6 (P10635 whole entry): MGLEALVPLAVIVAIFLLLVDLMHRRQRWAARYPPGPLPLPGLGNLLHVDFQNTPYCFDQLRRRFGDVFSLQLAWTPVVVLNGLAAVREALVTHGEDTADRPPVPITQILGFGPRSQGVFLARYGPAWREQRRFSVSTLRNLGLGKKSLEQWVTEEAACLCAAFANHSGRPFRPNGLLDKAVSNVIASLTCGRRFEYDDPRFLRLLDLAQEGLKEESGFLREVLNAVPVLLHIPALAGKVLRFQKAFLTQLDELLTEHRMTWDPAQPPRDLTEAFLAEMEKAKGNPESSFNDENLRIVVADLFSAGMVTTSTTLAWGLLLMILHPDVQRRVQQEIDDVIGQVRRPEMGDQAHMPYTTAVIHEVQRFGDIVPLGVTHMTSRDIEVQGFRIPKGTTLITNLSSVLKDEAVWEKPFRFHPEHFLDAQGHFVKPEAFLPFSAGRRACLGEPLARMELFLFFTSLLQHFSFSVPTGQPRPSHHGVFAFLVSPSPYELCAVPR

In the case of CCN(CC)Cc1c(O)c(OC)c(O)c2c1C(=O)O[C@@H]1[C@@H](O)[C@H](O)[C@@H](CO)O[C@@H]21, the pIC50 (THP-1 [1]) was 6.78, the inhibition [2] was “Active” and the solubility [3] was > 1500 µg/mL. The inhibition (Mus musculus [4]) was “Active”, the inhibition (Mus musculus [5]) was “Dose-dependent effect” and the pIC50 (THP-1 [6]) was 3.96. For the same compound, the inhibition at 10 µM (CYP2C9) was 32%, the inhibition (Mus musculus [7]) was “Dose-dependent effect” and the inhibition at 10 µM (B-cell) was 47.9%. The solubility [8] was > 1500 µg/mL, the pIC50 (THP-1 [9]) was 4.87 and the inhibition at 10 µM (THP-1 [10]) was 41%. For the same compound, the efflux ratio [11] was 2.2, the inhibition (Mus musculus [12]) was “Active” and the inhibition in vivo at 30 mg/kg (Mus musculus [13]) was 28%. For the same compound, the inhibition (Mus musculus [14]) was “Active”, the inhibition at 10 µM (CYP3A4) was 15% and the pIC50 (THP-1 [15]) was 4.11. The inhibition (Mus musculus [16]) was “Active”, the inhibition (Mus musculus [17]) was “Dose-dependent effect” and the inhibition (Mus musculus [18]) was “Active”. The Activity (Mus musculus [19]) was 3 µM, the Activity (Cytochrome P450 1A2) was 10% and the inhibition at 10 µM (CYP2C19) was 6%. The inhibition at 10 µM [20] was 53.7%, the solubility [21] was > 1500 µg/mL and the Papp B→A [22] was 1.59 ×10⁻⁶ cm/s. The Activity (Mus musculus [23]) was 388 pg/mL, the inhibition (Mus musculus [24]) was “Active” and the inhibition (Mus musculus [25]) was “Active”. It also gave an Activity (Mus musculus [26]) of 585 pg/mL, an Activity (Cytochrome P450 2D6) of 36% and a Papp A→B [27] of 0.72 ×10⁻⁶ cm/s.
